Read-outs that look alike come from different tables or passages of the source.
Experiments:
[1] = tested on: patients with advanced CML or Ph+ ALL with imatinib resistance/intolerance; test: Dasatinib dose escalation clinical trial: hematologic response; conditions: for Hematologic response: CHR / Hematologic response: Major HR / Hematologic response: NEL / Hematologic response: Minor HR: patients n (%); for patients who responded: p=0.049
[2] = Plasma pharmacokinetics in patients; format: in vivo, human; conditions: T315I patients; FIG. 2b
[3] = tested on: patients with advanced CML or Ph+ ALL with imatinib resistance/intolerance; test: Dasatinib dose escalation clinical trial: cytogenetic response; conditions: for Cytogenetic response: CCyR / Cytogenetic response: Major CyR / Cytogenetic response: Minimal CyR / Cytogenetic response: Overall CyR / Cytogenetic response: PCyR / Cytogenetic response: Minor CyR: patients n (%)
p-glycoprotein = p-glycoprotein (Homo sapiens, UniProt P08183); conditions: cited from earlier work
p-glycoprotein, sequence (P08183 whole entry): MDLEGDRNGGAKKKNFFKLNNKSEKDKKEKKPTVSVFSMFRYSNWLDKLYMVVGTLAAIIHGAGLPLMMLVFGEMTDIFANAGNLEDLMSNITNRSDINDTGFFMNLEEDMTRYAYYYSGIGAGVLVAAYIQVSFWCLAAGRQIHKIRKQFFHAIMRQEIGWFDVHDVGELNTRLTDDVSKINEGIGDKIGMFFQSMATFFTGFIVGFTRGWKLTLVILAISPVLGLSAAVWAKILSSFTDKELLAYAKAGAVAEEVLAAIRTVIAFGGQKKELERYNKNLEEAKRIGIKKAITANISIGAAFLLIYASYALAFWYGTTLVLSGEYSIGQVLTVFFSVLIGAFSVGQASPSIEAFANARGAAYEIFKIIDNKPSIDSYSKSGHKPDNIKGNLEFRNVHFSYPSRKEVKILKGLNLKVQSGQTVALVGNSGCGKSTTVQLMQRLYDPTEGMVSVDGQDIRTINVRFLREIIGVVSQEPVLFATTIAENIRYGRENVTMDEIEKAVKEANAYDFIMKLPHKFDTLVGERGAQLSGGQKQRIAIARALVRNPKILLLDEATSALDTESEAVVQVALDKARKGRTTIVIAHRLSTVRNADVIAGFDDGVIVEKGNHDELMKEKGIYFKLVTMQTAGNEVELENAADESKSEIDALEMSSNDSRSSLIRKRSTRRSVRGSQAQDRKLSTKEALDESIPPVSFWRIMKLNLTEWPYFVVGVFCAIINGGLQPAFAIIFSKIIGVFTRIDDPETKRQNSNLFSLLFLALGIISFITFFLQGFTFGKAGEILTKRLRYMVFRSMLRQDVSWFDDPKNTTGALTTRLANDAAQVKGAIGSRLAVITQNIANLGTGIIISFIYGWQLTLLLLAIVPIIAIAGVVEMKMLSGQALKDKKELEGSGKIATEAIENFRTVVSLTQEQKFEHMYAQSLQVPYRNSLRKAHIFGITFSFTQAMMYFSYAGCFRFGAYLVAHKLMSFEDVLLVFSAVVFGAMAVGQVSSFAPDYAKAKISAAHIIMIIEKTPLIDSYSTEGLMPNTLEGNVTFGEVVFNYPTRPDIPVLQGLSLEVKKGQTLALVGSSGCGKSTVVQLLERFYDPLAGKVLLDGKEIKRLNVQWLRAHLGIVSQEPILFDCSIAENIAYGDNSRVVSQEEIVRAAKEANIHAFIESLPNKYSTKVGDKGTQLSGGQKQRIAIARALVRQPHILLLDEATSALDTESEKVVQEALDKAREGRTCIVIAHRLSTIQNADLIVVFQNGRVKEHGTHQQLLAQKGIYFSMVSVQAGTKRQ

[4] = AP (N = 11), regardless of relationship to treatment, patients n (%)
[5] = AP-CML (N = 11), patients n (%)
[6] = LBC/ALL (N = 10), patients n (%)
[7] = LBC/ALL (N = 10), regardless of relationship to treatment, patients n (%)
[8] = LBC/Ph+ ALL (N = 10), patients n (%)
[9] = MBC N = (23), regardless of relationship to treatment, patients n (%)

With `Cc1nc(Nc2ncc(C(=O)Nc3c(C)cccc3Cl)s2)cc(N2CCN(CCO)CC2)n1` [dasatinib, N-(2-chloro-6-methylphenyl)-2-[[6-[4-(2-hydroxyethyl)-1-piperazinyl]-2-methyl-4-pyrimidinyl]amino]-5-thiazolecarboxamide] the maximum tolerated dose (35-120 mg BID cohorts) was “not defined”, the “Diarrhea, Grade 1-4” value (AP (N = 11), patients n (%)) was 5 (45) and the “Dyspnea/Pulmonary edema, Grade 1-4” value (AP (N = 11), patients n (%)) was 3 (27). For the same compound, the “Flushing, Grade 1-4” value (AP (N = 11), patients n (%)) was 3 (27), the “Generalized edema, Grade 1-4” value (AP (N = 11), patients n (%)) was 1 (9) and the “Headache, Grade 1-4” value (AP (N = 11), patients n (%)) was 3 (27). For the same compound, the “Nausea, Grade 1-4” value (AP (N = 11), patients n (%)) was 1 (9), the “On-Study Myelosuppression: ANC, Grade 3” value (AP (N = 11), patients n (%)) was 3 (27) and the “On-Study Myelosuppression: Platelets, Grade 3” value (AP (N = 11), patients n (%)) was 3 (27). The “Periorbital edema, Grade 1-4” value (AP (N = 11), patients n (%)) was 1 (9), the “Peripheral edema, Grade 1-4” value (AP (N = 11), patients n (%)) was 3 (27) and the “Rash, Grade 1-4” value (AP (N = 11), patients n (%)) was 5 (45). The “Vomiting, Grade 1-4” value (AP (N = 11), patients n (%)) was 1 (9), the “Elevated ALT, Grade 1-4” value [4] was 8 (73) and the “Elevated ALT, Grade 3-4” value [4] was 1 (9). The “Elevated AST, Grade 1-4” value [4] was 7 (64), the “Elevated Total bilirubin, Grade 1-4” value [4] was 2 (18) and the “Elevated creatinine, Grade 1-4” value [4] was 2 (18). The “Hypocalcemia, Grade 1-4” value [4] was 8 (73), the “Hypocalcemia, Grade 3-4” value [4] was 2 (18) and the “Hypomagnesemia, Grade 1-4” value [4] was 5 (45). The “Grade 3 or 4 neutropenia on treatment” value (AP, 9/11 patients) was 82%, the “grade 3/4 thrombocytopenia” value (AP, 9/11 patients) was 82% and the “On-Study Myelosuppression: ANC, Grade 4” value [5] was 6 (55). For the same compound, the “On-Study Myelosuppression: Platelets, Grade 4” value [5] was 6 (55), the “Diarrhea, Grade 1-4” value [6] was 2 (20) and the “Dyspnea/Pulmonary edema, Grade 1-4” value [6] was 1 (10). For the same compound, the “Generalized edema, Grade 1-4” value [6] was 1 (10), the “Nausea, Grade 1-4” value [6] was 1 (10) and the “Periorbital edema, Grade 1-4” value [6] was 1 (10). For the same compound, the “Peripheral edema, Grade 1-4” value [6] was 1 (10), the “Pleural effusion, Grade 1-4” value [6] was 2 (20) and the “Rash, Grade 1-4” value [6] was 1 (10). For the same compound, the “Vomiting, Grade 1-4” value [6] was 1 (10), the “Elevated ALT, Grade 1-4” value [7] was 7 (70) and the “Elevated AST, Grade 1-4” value [7] was 9 (90). For the same compound, the “Elevated Total bilirubin, Grade 1-4” value [7] was 5 (50), the “Elevated creatinine, Grade 1-4” value [7] was 6 (60) and the “Hypocalcemia, Grade 1-4” value [7] was 7 (70). For the same compound, the “Hypocalcemia, Grade 3-4” value [7] was 3 (30), the “Hypomagnesemia, Grade 1-4” value [7] was 3 (30) and the “On-Study Myelosuppression: ANC, Grade 3” value [8] was 2 (20). For the same compound, the “On-Study Myelosuppression: ANC, Grade 4” value [8] was 6 (60), the “On-Study Myelosuppression: Platelets, Grade 3” value [8] was 0 and the “On-Study Myelosuppression: Platelets, Grade 4” value [8] was 7 (70). For the same compound, the “grade 3/4 thrombocytopenia” value (LBC/Ph+ ALL, 7/10 patients) was 70%, the “Grade 3 or 4 neutropenia on treatment” value (LBC/Ph+ ALL, 8/10 patients) was 80% and the “Diarrhea, Grade 1-4” value (MBC (N = 23), patients n (%)) was 5 (22). The “Diarrhea, Grade 3-4” value (MBC (N = 23), patients n (%)) was 1 (4), the “Dyspnea/Pulmonary edema, Grade 1-4” value (MBC (N = 23), patients n (%)) was 2 (9) and the “Dyspnea/Pulmonary edema, Grade 3-4” value (MBC (N = 23), patients n (%)) was 2 (9). For the same compound, the “Flushing, Grade 1-4” value (MBC (N = 23), patients n (%)) was 1 (4), the “Headache, Grade 1-4” value (MBC (N = 23), patients n (%)) was 1 (4) and the “Nausea, Grade 1-4” value (MBC (N = 23), patients n (%)) was 4 (17). For the same compound, the “On-Study Myelosuppression: ANC, Grade 3” value (MBC (N = 23), patients n (%)) was 2 (9), the “On-Study Myelosuppression: ANC, Grade 4” value (MBC (N = 23), patients n (%)) was 20 (87) and the “On-Study Myelosuppression: Platelets, Grade 3” value (MBC (N = 23), patients n (%)) was 2 (9). The “On-Study Myelosuppression: Platelets, Grade 4” value (MBC (N = 23), patients n (%)) was 17 (74), the “Pericardial effusion, Grade 1-4” value (MBC (N = 23), patients n (%)) was 3 (13) and the “Pericardial effusion, Grade 3-4” value (MBC (N = 23), patients n (%)) was 2 (9). The “Periorbital edema, Grade 1-4” value (MBC (N = 23), patients n (%)) was 2 (9), the “Peripheral edema, Grade 1-4” value (MBC (N = 23), patients n (%)) was 5 (22) and the “Pleural effusion, Grade 1-4” value (MBC (N = 23), patients n (%)) was 8 (35). The “Pleural effusion, Grade 3-4” value (MBC (N = 23), patients n (%)) was 3 (13), the “Rash, Grade 1-4” value (MBC (N = 23), patients n (%)) was 2 (9) and the “Rectal hemorrhage, Grade 1-4” value (MBC (N = 23), patients n (%)) was 2 (9). For the same compound, the “Rectal hemorrhage, Grade 3-4” value (MBC (N = 23), patients n (%)) was 2 (9), the “Tumor lysis syndrome, Grade 1-4” value (MBC (N = 23), patients n (%)) was 2 (9) and the “Tumor lysis syndrome, Grade 3-4” value (MBC (N = 23), patients n (%)) was 2 (9). For the same compound, the “Vomiting, Grade 1-4” value (MBC (N = 23), patients n (%)) was 2 (9), the “Elevated ALT, Grade 1-4” value [9] was 13 (57) and the “Elevated AST, Grade 1-4” value [9] was 13 (57). For the same compound, the “Elevated Total bilirubin, Grade 1-4” value [9] was 10 (43), the “Elevated Total bilirubin, Grade 3-4” value [9] was 4 (17) and the “Elevated creatinine, Grade 1-4” value [9] was 12 (52). For the same compound, the “Hypocalcemia, Grade 1-4” value [9] was 21 (91), the “Hypocalcemia, Grade 3-4” value [9] was 6 (26) and the “Hypomagnesemia, Grade 3-4” value [9] was 1 (4). For the same compound, the “grade 3/4 thrombocytopenia” value (MBC, 19/23 patients) was 83%, the “Grade 3 or 4 neutropenia on treatment” value (MBC, 22/23 patients) was 96% and the “severe (grade 4) myelosuppression” value (advanced phase CML patients) was “about 70%”. The “patients removed from the study due to a drug-related toxicity” value (all patients) was “no patient”, the “Grade 3/4 non-hematologic adverse events” value (all patients, 9/44) was 20% and the non-malignant pleural effusions (often in the absence of other edema) was 10 patients. For the same compound, the “Hematologic response: CHR” value ([1]; AP CML n = 11) was 5 (45), the “Hematologic response: Major HR” value ([1]; AP CML n = 11) was 9 (81) and the “Hematologic response: NEL” value ([1]; AP CML n = 11) was 4 (36). The “patients who achieved a major HR remain on study” value ([1]; AP cohort, 9/11, median of 8 months (range 2-13 months)) was 81%, the “major HR confirmed after 4 weeks” value ([1]; AP patients, 6) was 55% and the “major HR” value ([1]; AP patients, 9/11) was 81%. For the same compound, the “Hematologic response: CHR” value ([1]; LBC-CML/ALL n = 10) was 7 (70), the “Hematologic response: Major HR” value ([1]; LBC-CML/ALL n = 10) was 8 (80) and the “Hematologic response: NEL” value ([1]; LBC-CML/ALL n = 10) was 1 (10). For the same compound, the “major HR confirmed after 4 weeks” value ([1]; LBC/Ph+ ALL, 5) was 50%, the “major HR rate” value ([1]; LBC/Ph+ ALL, 8/10) was 80% and the “major HR confirmed after 4 weeks” value ([1]; MBC patients, 7) was 30%. For the same compound, the “major HR” value ([1]; MBC patients, 14/23) was 61%, the “patients who remain on the study” value ([1]; MBC, 6 of 23, follow-up ranging 5-12 months) was 26% and the “Hematologic response: CHR” value ([1]; MBC-CML n = 23) was 8 (35). For the same compound, the “Hematologic response: Major HR” value ([1]; MBC-CML n = 23) was 14 (61), the “Hematologic response: Minor HR” value ([1]; MBC-CML n = 23) was 4 (17) and the “Hematologic response: NEL” value ([1]; MBC-CML n = 23) was 6 (26). The “patients who failed to meet the criteria for major or minor hematologic response” value ([1]; Nine of the 44 patients) was 20%, the “Hematologic response: CHR” value ([1]; Total N = 44) was 20 (45) and the “Hematologic response: Major HR” value ([1]; Total N = 44) was 31 (70). The “Hematologic response: Minor HR” value ([1]; Total N = 44) was 4 (9), the “Hematologic response: NEL” value ([1]; Total N = 44) was 11 (25) and the patients who responded ([1]; complex karyotypes, 17 of 25 patients) was 68%. The “relapsed within 6 months” value ([1]; lymphoid blast crisis or Ph+ ALL) was “all but one patient”, the “patients with durable responses for 10 months or longer” value ([1]; of the 8 Myeloid BC patients who achieved CHR) was 3 and the patients who responded ([1]; simple Ph karyotypes, 17 of 18 patients) was 94%. The CHR ([1]; total patient population, 20/44) was 45%, the “major HR” value ([1]; total patient population, 31/44) was 70% and the serum levels [2] was “adequate”. For the same compound, the “Cytogenetic response: CCyR” value ([3]; AP CML n = 11) was 2 (18), the “Cytogenetic response: Major CyR” value ([3]; AP CML n = 11) was 3 (27) and the “Cytogenetic response: Minimal CyR” value ([3]; AP CML n = 11) was 1 (9). The “Cytogenetic response: Overall CyR” value ([3]; AP CML n = 11) was 4 (36), the “Cytogenetic response: PCyR” value ([3]; AP CML n = 11) was 1 (9) and the Major cytogenetic responses ([3]; AP patients, 3/11) was 27%. For the same compound, the “Cytogenetic response: CCyR” value ([3]; LBC-CML/ALL n = 10) was 3 (30), the “Cytogenetic response: Major CyR” value ([3]; LBC-CML/ALL n = 10) was 8 (80) and the “Cytogenetic response: Minor CyR” value ([3]; LBC-CML/ALL n = 10) was 1 (10). For the same compound, the “Cytogenetic response: Overall CyR” value ([3]; LBC-CML/ALL n = 10) was 9 (90), the “Cytogenetic response: PCyR” value ([3]; LBC-CML/ALL n = 10) was 5 (50) and the MCyR rate ([3]; LBC/Ph+ ALL patients, 8/10) was 80%. The “overall cytogenetic response rate” value ([3]; LBC/Ph+ ALL patients, 9/10) was 90%, the Cytogenetic responses ([3]; MBC patients, 12/23) was 52% and the “Cytogenetic response: CCyR” value ([3]; MBC-CML n = 23) was 6 (26). For the same compound, the “Cytogenetic response: Major CyR” value ([3]; MBC-CML n = 23) was 8 (35), the “Cytogenetic response: Minimal CyR” value ([3]; MBC-CML n = 23) was 2 (9) and the “Cytogenetic response: Minor CyR” value ([3]; MBC-CML n = 23) was 2 (9). The “Cytogenetic response: Overall CyR” value ([3]; MBC-CML n = 23) was 12 (52), the “Cytogenetic response: PCyR” value ([3]; MBC-CML n = 23) was 2 (9) and the “Cytogenetic response: CCyR” value ([3]; Total N = 44) was 11 (25). The “Cytogenetic response: Major CyR” value ([3]; Total N = 44) was 19 (43), the “Cytogenetic response: Minimal CyR” value ([3]; Total N = 44) was 3 (7) and the “Cytogenetic response: Minor CyR” value ([3]; Total N = 44) was 3 (7). The “Cytogenetic response: Overall CyR” value ([3]; Total N = 44) was 25 (57), the “Cytogenetic response: PCyR” value ([3]; Total N = 44) was 8 (18) and the CCyR ([3]; total patient population, 11/44) was 25%. The “major CyR (CCyR plus PCyR)” value ([3]; total patient population, 19/44) was 43%, the CyR ([3]; total patient population, 25/44) was 57% and the substrate for p-glycoprotein (p-glycoprotein) was “not a substrate”.

— patent US20090197893A1 (Bristol-Myers Squibb Company, priority 2005, published 2009)
